From patent US12371428B2 (Exelixis, Inc., priority 2019, dated 2025)

What was measured:
[1] = target: Human MER (residues 528-999) (Homo sapiens (Human), UniProt Q12866); experiment: Human Mer kinase assay, HTRF KinEase (Example C-2); assay type: biochemical; settings: protocol of Example C-2 (other compounds)
Summary of the method: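 Recombinant MER 528-999 (1 ng/well) in buffer with 5 mM MgCl2 and 1 mM DTT was reacted with biotinylated peptide and ATP at Km (40 μM) for 60 min at room temperature. EDTA stop with SA-XL665 and Eu3+ TK antibody, then 665/620 nm HTRF read; IC50 from 4-parameter fit.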

[2] = target: Human MET (residues 956-1390) (Homo sapiens (Human), UniProt P08581); experiment: Human Met kinase assay, HTRF KinEase (Example D-2); assay type: biochemical; settings: protocol of Example D-2 (other compounds); read-out: c-Met IC50
Summary of the method: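 MET kinase domain (956-1390), 0.1 ng/well, in buffer with 5 mM MgCl2, 1 mM DTT and 1 mM MnCl2, phosphorylated a biotinylated peptide at ATP Km for 40 min at RT; 10 concentrations, 3% DMSO final. EDTA-stopped HTRF read after 60 min; IC50 from a 4-parameter logistic fit.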

[3] = target: Mer (phospho-Mer, MERTK-transfected 293A cells) (Homo sapiens (Human), UniProt Q12866); experiment: Mer autophosphorylation ELISA in transient transfected 293A cells (Example H); assay type: cell-based; settings: cellular activity; Mer autophosphorylation ELISA in transient transfected 293A cells
Summary of the method: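 293A cells transiently transfected with human MERTK were treated 1 h in serum-free medium with an 8-point compound dilution (0.3% DMSO final). Lysates were assayed by phospho-Mer sandwich ELISA against a phospho-Mer standard; IC50 came from a 4-parameter logistic fit, normalised to DMSO (100%) and reference-inhibitor (0%) controls.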

Sequence of Human MER (residues 528-999) (Q12866 528-999): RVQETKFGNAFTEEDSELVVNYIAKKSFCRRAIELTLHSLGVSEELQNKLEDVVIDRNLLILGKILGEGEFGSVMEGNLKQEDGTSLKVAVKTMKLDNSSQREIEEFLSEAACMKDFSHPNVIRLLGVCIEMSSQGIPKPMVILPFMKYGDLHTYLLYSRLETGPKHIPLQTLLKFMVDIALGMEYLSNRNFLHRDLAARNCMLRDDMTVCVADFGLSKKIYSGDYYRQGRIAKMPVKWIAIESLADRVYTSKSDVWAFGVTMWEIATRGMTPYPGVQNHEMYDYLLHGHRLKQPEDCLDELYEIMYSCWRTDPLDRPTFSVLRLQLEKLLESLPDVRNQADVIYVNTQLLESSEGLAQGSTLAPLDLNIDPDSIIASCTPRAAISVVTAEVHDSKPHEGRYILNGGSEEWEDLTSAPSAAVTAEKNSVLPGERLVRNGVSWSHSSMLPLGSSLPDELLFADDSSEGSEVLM
Sequence of Mer (phospho-Mer, MERTK-transfected 293A cells) (Q12866 21-999): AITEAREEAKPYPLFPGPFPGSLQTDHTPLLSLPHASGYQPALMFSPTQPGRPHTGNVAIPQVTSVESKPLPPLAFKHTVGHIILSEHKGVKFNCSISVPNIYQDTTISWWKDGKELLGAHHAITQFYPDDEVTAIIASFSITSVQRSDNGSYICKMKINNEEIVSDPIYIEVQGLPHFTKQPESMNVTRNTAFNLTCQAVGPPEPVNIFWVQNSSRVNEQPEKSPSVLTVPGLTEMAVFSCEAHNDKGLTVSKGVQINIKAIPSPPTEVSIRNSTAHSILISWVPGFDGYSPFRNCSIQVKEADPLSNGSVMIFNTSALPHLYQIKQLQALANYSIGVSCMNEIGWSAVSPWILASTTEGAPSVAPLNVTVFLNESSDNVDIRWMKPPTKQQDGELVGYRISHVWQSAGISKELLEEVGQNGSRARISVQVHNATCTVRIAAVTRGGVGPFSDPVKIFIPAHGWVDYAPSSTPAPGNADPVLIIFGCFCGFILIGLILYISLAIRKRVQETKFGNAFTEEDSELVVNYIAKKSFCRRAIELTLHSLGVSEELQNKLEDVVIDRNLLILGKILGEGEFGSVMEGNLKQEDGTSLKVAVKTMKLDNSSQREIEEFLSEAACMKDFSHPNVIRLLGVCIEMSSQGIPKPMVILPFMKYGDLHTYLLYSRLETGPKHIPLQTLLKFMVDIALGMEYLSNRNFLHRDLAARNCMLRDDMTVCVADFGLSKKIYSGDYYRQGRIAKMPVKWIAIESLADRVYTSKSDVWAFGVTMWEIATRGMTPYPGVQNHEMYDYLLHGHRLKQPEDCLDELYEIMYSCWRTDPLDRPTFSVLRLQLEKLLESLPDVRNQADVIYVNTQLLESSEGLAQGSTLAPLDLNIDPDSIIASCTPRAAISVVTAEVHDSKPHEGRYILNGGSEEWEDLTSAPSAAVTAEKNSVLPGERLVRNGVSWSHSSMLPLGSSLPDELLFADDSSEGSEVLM
Sequence of Human MET (residues 956-1390) (P08581 956-1390): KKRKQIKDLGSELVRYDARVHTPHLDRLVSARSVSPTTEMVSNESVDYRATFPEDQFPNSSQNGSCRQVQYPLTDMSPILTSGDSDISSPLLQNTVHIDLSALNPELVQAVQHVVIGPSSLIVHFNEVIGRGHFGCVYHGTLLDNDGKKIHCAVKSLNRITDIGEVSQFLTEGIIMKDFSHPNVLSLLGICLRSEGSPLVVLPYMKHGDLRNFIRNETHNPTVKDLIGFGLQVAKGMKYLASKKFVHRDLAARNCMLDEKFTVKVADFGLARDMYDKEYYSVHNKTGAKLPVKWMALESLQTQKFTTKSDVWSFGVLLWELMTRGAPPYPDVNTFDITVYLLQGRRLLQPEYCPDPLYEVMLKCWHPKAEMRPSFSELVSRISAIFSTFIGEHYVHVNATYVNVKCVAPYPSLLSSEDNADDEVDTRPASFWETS

COc1nc2c(Oc3ccc(NC(=O)c4c(C)nc(C)c(-c5ccc(F)cc5)c4O)cc3F)ccnc2cc1O [Compound 431, N-[3-fluoro-4-[(7-hydroxy-6-methoxy-1,5-naphthyridin-4-yl)oxy]phenyl]-5-(4-fluorophenyl)-4-hydroxy-2,6-dimethylpyridine-3-carboxamide]
IC50 [1]: < 0.1 µM | IC50 [2]: < 0.1 µM | IC50 [3]: < 0.1 µM

COc1cc2nccc(Oc3ccc(NC(=O)c4cn(C)c(C)c(-c5ccc(F)cc5)c4=O)cc3)c2nc1OC [Compound 65, N-[4-[(6,7-Dimethoxy-1,5-naphthyridin-4-yl)oxy]phenyl]-5-(4-fluorophenyl)-1,6-dimethyl-4-oxopyridine-3-carboxamide]
IC50 [1]: < 0.1 µM | IC50 [2]: < 0.1 µM | IC50 [3]: < 0.1 µM

COc1cc2nccc(Oc3ccc(NC(=O)c4cn(C)c(OC)c(-c5ccc(F)cc5)c4=O)cc3F)c2nc1OC [Compound 78, N-[4-[(6,7-Dimethoxy-1,5-naphthyridin-4-yl)oxy]-3-fluorophenyl]-5-(4-fluorophenyl)-6-methoxy-1-methyl-4-oxopyridine-3-carboxamide]
IC50 [1]: < 0.1 µM | IC50 [2]: < 0.1 µM | IC50 [3]: < 0.1 µM

COc1cc2nccc(Oc3ccc(NC(=O)c4cn(CC(F)(F)F)c(C)c(-c5ccc(F)cc5)c4=O)cc3F)c2nc1OC [Compound 74, N-[4-[(6,7-Dimethoxy-1,5-naphthyridin-4-yl)oxy]-3-fluorophenyl]-5-(4-fluorophenyl)-6-methyl-4-oxo-1-(2,2,2-trifluoroethyl)pyridine-3-carboxamide]
IC50 [1]: < 0.1 µM | IC50 [2]: < 0.1 µM | IC50 [3]: < 0.1 µM

COc1cc2nccc(Oc3ccc(NC(=O)c4cc(C#N)c(C)n(-c5ccc(F)cc5)c4=O)cc3F)c2nc1OC [Compound 87, 5-Cyano-N-[4-[(6,7-dimethoxy-1,5-naphthyridin-4-yl)oxy]-3-fluorophenyl]-1-(4-fluorophenyl)-6-methyl-2-oxopyridine-3-carboxamide]
IC50 [1]: < 0.1 µM | IC50 [2]: < 0.1 µM | IC50 [3]: < 0.1 µM

COc1ccc2nccc(Oc3ccc(NC(=O)c4cn(C5CC5)c(C)c(-c5ccc(F)cc5C)c4=O)cc3F)c2n1 [Compound 441, 1-cyclopropyl-N-[3-fluoro-4-[(6-methoxy-1,5-naphthyridin-4-yl)oxy]phenyl]-5-(4-fluoro-2-methylphenyl)-6-methyl-4-oxopyridine-3-carboxamide]
IC50 [1]: < 0.1 µM | IC50 [2]: 0.1 to 0.3 µM | IC50 [3]: < 0.1 µM

CCOc1c(-c2ccc(F)cc2)cnc(C)c1C(=O)Nc1ccc(Oc2ccnc3cc(OC)c(OC)nc23)c(F)c1 [Compound 403, N-[4-[(6,7-dimethoxy-1,5-naphthyridin-4-yl)oxy]-3-fluorophenyl]-4-ethoxy-5-(4-fluorophenyl)-2-methylpyridine-3-carboxamide]
IC50 [1]: < 0.1 µM | IC50 [2]: 0.1 to 0.3 µM | IC50 [3]: < 0.1 µM

COc1cc2nccc(Oc3ccc(NC(=O)c4cn(C)c(C)c(-c5ccc(F)cc5)c4=O)cc3F)c2nc1OC [Compound 58, N-[4-[(6,7-Dimethoxy-1,5-naphthyridin-4-yl)oxy]-3-fluorophenyl]-5-(4-fluorophenyl)-1,6-dimethyl-4-oxopyridine-3-carboxamide]
IC50 [1]: < 0.1 µM | IC50 [2]: < 0.1 µM | IC50 [3]: < 0.1 µM

CCc1cnc2c(Oc3ccc(NC(=O)c4cnc(C)c(-c5ccc(F)cc5C)c4O)cc3F)ccnc2c1 [Compound 419, N-[4-[(7-ethyl-1,5-naphthyridin-4-yl)oxy]-3-fluorophenyl]-5-(4-fluoro-2-methylphenyl)-4-hydroxy-6-methylpyridine-3-carboxamide]
IC50 [1]: < 0.1 µM | IC50 [2]: < 0.1 µM | IC50 [3]: < 0.1 µM

COc1cc2nccc(Oc3ccc(NC(=O)c4nn(C)c(C)c(-c5ccc(F)cc5)c4=O)cc3)c2nc1OC [Compound 91, N-[4-[(6,7-Dimethoxy-1,5-naphthyridin-4-yl)oxy]phenyl]-5-(4-fluorophenyl)-1,6-dimethyl-4-oxopyridazine-3-carboxamide]
IC50 [1]: < 0.1 µM | IC50 [2]: < 0.1 µM | IC50 [3]: < 0.1 µM

COc1cc2nccc(Oc3ccc(NC(=O)c4cn(C)c(Cl)c(-c5ccc(F)cc5)c4=O)cc3F)c2nc1OC [Compound 412, 6-chloro-N-[4-[(6,7-dimethoxy-1,5-naphthyridin-4-yl)oxy]-3-fluorophenyl]-5-(4-fluorophenyl)-1-methyl-4-oxopyridine-3-carboxamide]
IC50 [1]: < 0.1 µM | IC50 [2]: < 0.1 µM | IC50 [3]: < 0.1 µM

COCCOc1nc2c(Oc3ccc(NC(=O)c4cnc(C)c(-c5ccc(F)cc5)c4O)cc3F)ccnc2cc1C [Compound 436, N-[3-fluoro-4-[[6-(2-methoxyethoxy)-7-methyl-1,5-naphthyridin-4-yl]oxy]phenyl]-5-(4-fluorophenyl)-4-hydroxy-6-methylpyridine-3-carboxamide]
IC50 [1]: < 0.1 µM | IC50 [2]: < 0.1 µM | IC50 [3]: < 0.1 µM

COc1cc2nccc(Oc3ccc(NC(=O)c4cn(C5CC5)c(C)c(-c5ccc(F)cc5C)c4=O)cc3F)c2nc1OC [Compound 439, 1-cyclopropyl-N-[4-[(6,7-dimethoxy-1,5-naphthyridin-4-yl)oxy]-3-fluorophenyl]-5-(4-fluoro-2-methylphenyl)-6-methyl-4-oxopyridine-3-carboxamide]
IC50 [1]: < 0.1 µM | IC50 [2]: 0.1 to 0.3 µM | IC50 [3]: < 0.1 µM

COc1cc2nccc(Oc3ccc(NC(=O)c4cn(C)c(CF)c(-c5ccc(F)cc5)c4=O)cc3F)c2nc1OC [Compound 73, N-[4-[(6,7-Dimethoxy-1,5-naphthyridin-4-yl)oxy]-3-fluorophenyl]-6-(fluoromethyl)-5-(4-fluorophenyl)-1-methyl-4-oxopyridine-3-carboxamide]
IC50 [1]: < 0.1 µM | IC50 [2]: < 0.1 µM | IC50 [3]: < 0.1 µM

COc1cc2nccc(Oc3ccc(NC(=O)c4c(C)nc(OC)c(-c5ccc(F)cc5)c4O)cc3F)c2nc1OC [Compound 442, N-[4-[(6,7-dimethoxy-1,5-naphthyridin-4-yl)oxy]-3-fluorophenyl]-5-(4-fluorophenyl)-4-hydroxy-6-methoxy-2-methylpyridine-3-carboxamide]
IC50 [1]: < 0.1 µM | IC50 [2]: < 0.1 µM | IC50 [3]: < 0.1 µM

Cc1cc(F)ccc1-c1c(C)n(C)cc(C(=O)Nc2ccc(Oc3ccnc4cc(C)c(F)nc34)c(F)c2)c1=O [Compound 429, N-[3-fluoro-4-[(6-fluoro-7-methyl-1,5-naphthyridin-4-yl)oxy]phenyl]-5-(4-fluoro-2-methylphenyl)-1,6-dimethyl-4-oxopyridine-3-carboxamide]
IC50 [1]: < 0.1 µM | IC50 [2]: < 0.1 µM | IC50 [3]: < 0.1 µM

C=Cc1cc2nccc(Oc3ccc(NC(=O)c4cnc(C)c(-c5ccc(F)cc5)c4O)cc3F)c2nc1OC [Compound 422, N-[4-[(7-ethenyl-6-methoxy-1,5-naphthyridin-4-yl)oxy]-3-fluorophenyl]-5-(4-fluorophenyl)-4-hydroxy-6-methylpyridine-3-carboxamide]
IC50 [1]: < 0.1 µM | IC50 [2]: < 0.1 µM | IC50 [3]: < 0.1 µM

COc1cc2nccc(Oc3ccc(NC(=O)c4cnc(C)c(-c5ccc(F)cc5)c4O)cc3)c2nc1OC(C)C [Compound 413, 5-(4-fluorophenyl)-4-hydroxy-N-[4-[(7-methoxy-6-propan-2-yloxy-1,5-naphthyridin-4-yl)oxy]phenyl]-6-methylpyridine-3-carboxamide]
IC50 [1]: < 0.1 µM | IC50 [2]: < 0.1 µM | IC50 [3]: < 0.1 µM

COc1cc2nccc(Oc3ccc(NC(=O)c4n[nH]c(C)c(-c5ccc(F)cc5)c4=O)cc3F)c2nc1OC [Compound 88, N-[4-[(6,7-Dimethoxy-1,5-naphthyridin-4-yl)oxy]-3-fluorophenyl]-5-(4-fluorophenyl)-6-methyl-4-oxo-1H-pyridazine-3-carboxamide]
IC50 [1]: < 0.1 µM | IC50 [2]: < 0.1 µM | IC50 [3]: < 0.1 µM

COc1ccc2nccc(Oc3ccc(NC(=O)c4n[nH]c(C)c(-c5ccc(F)cc5)c4=O)cc3F)c2n1 [Compound 89, N-[3-Fluoro-4-[(6-methoxy-1,5-naphthyridin-4-yl)oxy]phenyl]-5-(4-fluorophenyl)-6-methyl-4-oxo-1H-pyridazine-3-carboxamide]
IC50 [1]: < 0.1 µM | IC50 [2]: < 0.1 µM | IC50 [3]: < 0.1 µM

COc1cnc2c(Oc3ccc(NC(=O)c4ncc(C)n(-c5ccc(F)cc5)c4=O)cc3F)ccnc2c1 [Compound 94, N-[3-Fluoro-4-[(7-methoxy-1,5-naphthyridin-4-yl)oxy]phenyl]-4-(4-fluorophenyl)-5-methyl-3-oxopyrazine-2-carboxamide]
IC50 [1]: < 0.1 µM | IC50 [2]: < 0.1 µM | IC50 [3]: < 0.1 µM

COc1ccc2nccc(Oc3ccc(NC(=O)c4c(C)nc(C)c(-c5ccc(F)cc5C)c4O)cc3F)c2n1 [Compound 70, N-[3-Fluoro-4-[(6-methoxy-1,5-naphthyridin-4-yl)oxy]phenyl]-5-(4-fluoro-2-methylphenyl)-4-hydroxy-2,6-dimethylpyridine-3-carboxamide]
IC50 [1]: < 0.1 µM | IC50 [2]: < 0.1 µM | IC50 [3]: < 0.1 µM
